Measurements: patent publication US20240315994A1, “SMALL MOLECULE MODULATORS OF FERROPTOSIS” (ARPEGGIO BIOSCIENCES, INC., priority 2021, published 2024)

The compounds below were run on HT-1080 fibrosarcoma cells (assay: HT-1080 single-concentration cell viability screen (Cell Titer Glo)). Settings: 10 μM compound, 48 hours, duplicate, fraction of control.
Format: cell-based
Excerpt: To identify potential covalent inhibitors of GPX4, we screened a panel of 294 diverse small molecules from the Enamine covalent inhibitor library (Catalog No. CSL-10480-0-Z-10, Enamine, Monmouth, NJ). Each compound contains either a chloroacetamide or acrylamide moiety theoretically capable of forming a covalent bond with a selenocysteine. The small molecule compounds were selected for a diversity of backbone structures. The screening protocol used the cell viability assay Cell Titer Glo® (available from Promega, Madison, WI). Cell Titer Glo® is a luminescent cell viability that determines the number of viable cells in culture by quantifying ATP, which indicates the presence of metabolically active cells. Briefly, HT-1080 fibrosarcoma cells were plated 24 hours prior to treatment with 10 µM of each compound in the screening panel. Cell Titer Glo® was used to read out cell viability after 48 hours of compound exposure. Data was collected in duplicate.
To determine whether similar molecules could offer other starting points for a medicinal chemistry campaign, we screened 95 additional compounds that contain a similar base structure to that of 8216. Briefly, HT-1080 fibrosarcoma cells were treated with 10 µM of a compound for 48 hours and cell viability was measured by Cell Titer Glo®. Data was collected in duplicate. […]

Structure (SMILES)	Average relative cell viability
Cn1cc(CN(C(=O)CCl)c2ccc(F)cc2)cn1 [Compound Z3766264621]	0.02152
O=C(CCl)N(Cc1nc(C2CCCCCC2)no1)C1CC1 [Compound Z3766269910]	0.002904
CCN1CCCC(CN(C)C(=O)CCl)C1c1cnn(C)c1 (stereo not shown) [Compound Z3766270794]	0.003474
CC1(C)CC(N(Cc2ccccc2)C(=O)CCl)C(C)(C)O1 (stereo not shown) [Compound Z3766271747]	0.005616
O=C(CCl)N(Cc1ccns1)c1ccc2c(c1)OCCO2 [Compound Z3837046637]	0.00972
COc1cccc(CN(CC2CCCO2)C(=O)CCl)c1F (stereo not shown) [Compound Z3837050450]	0.5148
Cc1cc(CN(C(=O)CCl)c2ccc(F)cc2)nn1C [Compound Z3837055210]	0.001584
Cc1cc(F)ccc1N(Cc1ccnn1C(C)C)C(=O)CCl [Compound Z3837096793]	0.1701
Cc1cc(CN(Cc2ccn(C)n2)C(=O)CCl)ccc1F [Compound Z3837152585]	0.007686
Cc1csc(CN(C(=O)CCl)c2cccc(F)c2C)n1 [Compound Z3837197646]	0.01316
O=C(CCl)N(Cc1cc(F)ccc1F)CC1CCOCC1 [Compound Z3837255186]	0.1331
O=C(CCl)N(Cc1ccc(Cn2cccn2)cc1)CC1CC1 [Compound Z3837267295]	0.002112
CC(C)n1nccc1CN(CC1CCCC1)C(=O)CCl [Compound Z3837300268]	0.00828
Cc1ccc(CN(Cc2cnn(C)c2)C(=O)CCl)cc1C [Compound Z3837366035]	0.531
COc1ccc(CN(CC2CC(C)=NO2)C(=O)CCl)cc1 (stereo not shown) [Compound Z3837506617]	0.3267
COC1(CN(Cc2ccn(C)n2)C(=O)CCl)CCCCC1 [Compound Z3837644318]	0.7407
CCn1cc(CN(C(=O)CCl)C2CC2)c(C)n1 [Compound Z3887631385]	0.7938
O=C(CCl)N(Cc1ccccc1O)Cc1ccccc1O [Compound Z3952174992]	0.1517
N#Cc1ccc(CN(C(=O)CCl)C2CC2)c(F)c1 [Compound Z3952175125]	0.8876
O=C(CCl)N(CC1=CCCOC1)Cc1ccccc1 [Compound Z3952175509]	0.03047
Cn1ccc(N(Cc2ccccc2)C(=O)CCl)n1 [Compound Z4170009630]	0.08916
Cl.O=C(CCl)N(Cc1cn2ccccc2n1)C1CC1 [Compound Z4283095766]	0.9342

Structure (SMILES)	Average relative cell viability
O=C(CCl)N(Cc1ccccc1)Cc1cc2n(n1)CCCC2 [Compound Z4323310732]	0.05332
O=C(CCl)N(Cc1noc2c1CCCC2)c1ccccc1F [Compound Z4323314193]	0.00483
Cn1nnc(CN(C(=O)CCl)C2CCCCCCC2)n1 [Compound Z4323320274]	0.002922
Cc1nn(C)c(C)c1CN(C(=O)CCl)C1CCCCC1C (stereo not shown) [Compound Z4323324870]	0.488
C=CCN1CCC(N(Cc2ccc(CC)o2)C(=O)CCl)CC1 [Compound Z4323341765]	0.7008
COc1cc(CN(C(=O)CCl)C2CCCOC2)ccc1C (stereo not shown) [Compound Z4323349920]	0.002028
Cc1ccsc1CN(C(=O)CCl)C1CCN(C(C)C)C1=O (stereo not shown) [Compound Z4323355648]	0.5691
O=C(CCl)N(Cc1ccnn1C1CCC1)C1CC=CCC1 (stereo not shown) [Compound Z4323362848]	0.001626
COc1ccc(CN(C(=O)CCl)C2CCOC(C)C2)cc1C (stereo not shown) [Compound Z4323373087]	0.0167
O=C(CCl)N(Cc1cccc2ccoc12)C1CCCOCC1 (stereo not shown) [Compound Z4323385212]	0.003768
COC1CCC(N(Cc2cc(C)oc2C)C(=O)CCl)CC1 (stereo not shown) [Compound Z4323386801]	0.01527
O=C(CCl)N(Cc1ccc2c(c1)CCC2)CC1(CCO)CC1 [Compound Z4323486432]	0.004428
O=C(CCl)N(Cc1ccc2c(c1)OCCO2)Cc1ncoc1C1CCC1 [Compound Z4425210448]	0.00756
COc1ccc2nc(CN(Cc3ccc(F)cc3)C(=O)CCl)sc2c1 [Compound Z4425210755]	0.002562
COc1nc2ccc(CN(Cc3ccc(F)cc3)C(=O)CCl)cc2s1 [Compound Z4425210756]	0.00393
O=C(CCN(Cc1ccc2c(c1)CCOC2)C(=O)CCl)NC1CCCC1 [Compound Z4425210882]	0.1465
O=C(CCl)N(CC1=CCCCC1)Cc1cc(-c2ccc(Cl)cc2)on1 [Compound Z4425210932]	0.001926
CC(C)(C)n1nnc(CN(Cc2cccc(C3CC3)c2F)C(=O)CCl)n1 [Compound Z4425210960]	0.01925
Cc1scc(CN(Cc2ccc3c(c2)OCCCO3)C(=O)CCl)c1C [Compound Z4425210974]	0.001284
O=C(CCl)N(CCc1ccc(F)cc1)Cc1cnc(C2CCOCC2)o1 [Compound Z4425211012]	0.0748
O=C(CCl)N(Cc1cnn(C2CCCCC2)c1)CC1(c2ccccc2)CC1 [Compound Z4425211258]	0.001938
